Test results taken from ChEMBL document CHEMBL1201862, “PubChem BioAssay data set” (2004).
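96-well plates; 48 h exposure; 5 concentrations. Endpoints by linear interpolation between flanking doses. Not reached: highest tested concentration assigned. GI50: concentration for 50% inhibition of growth.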 Calls of active or inactive are those of the source. No stated cut-off is given here; in the data, active = GI50 up to about 1.1 µM and inactive = higher.

Assays:
Experiment in all cases: growth of human tumour cells (NCI), 48 h
KM12 = test system: KM12
UACC-62 = test system: UACC-62
NCI-H226 = test system: NCI-H226
RXF 393 = test system: RXF 393
NCI-H23 = test system: NCI-H23
MDA-N = test system: MDA-N
SK-MEL-5 = test system: SK-MEL-5
NCI-H522 = test system: NCI-H522
OVCAR-3 = test system: OVCAR-3
786-0 = test system: 786-0
IGROV-1 = test system: IGROV-1
ACHN = test system: ACHN
OVCAR-8 = test system: OVCAR-8
A549 = test system: A549
T47D = test system: T47D
SF-539 = test system: SF-539
A498 = test system: A498
UO-31 = test system: UO-31
U-251 = test system: U-251

Measured: GI50

COc1ccc(C)cc1NC(=S)N/N=C/c1ccco1
inactive: KM12 18.9 µM | UACC-62 46.8 µM | NCI-H226 25.9 µM | RXF 393 52.1 µM | NCI-H23 53.2 µM | MDA-N 18.6 µM | SK-MEL-5 14.7 µM | NCI-H522 22.8 µM | OVCAR-3 49.2 µM | 786-0 38 µM | IGROV-1 35.8 µM | ACHN > 100 µM | OVCAR-8 37.3 µM | A549 48.4 µM | T47D 25.4 µM | SF-539 27.6 µM | A498 57.3 µM | UO-31 79.3 µM

COC(=O)c1c(OC(C)=O)ccc2c1c1c(n2Cc2ccccc2)C(=O)c2ccccc2C1=O
inactive: KM12 20.5 µM | UACC-62 22.5 µM | NCI-H226 23 µM | RXF 393 18.8 µM | U-251 19.4 µM | NCI-H23 19.5 µM | MDA-N 18.7 µM | SK-MEL-5 14.2 µM | NCI-H522 19.5 µM | OVCAR-3 17.6 µM | 786-0 25.6 µM | IGROV-1 20.1 µM | ACHN 30.1 µM | OVCAR-8 27.7 µM | A549 26.4 µM | T47D 20 µM | SF-539 17.9 µM | A498 19.4 µM | UO-31 37.2 µM

CCNC(=O)NNc1ncnc2c1c(-c1ccc(Cl)cc1)cn2-c1ccc(C)cc1
inactive: KM12 20.1 µM | UACC-62 15.3 µM | NCI-H226 20 µM | RXF 393 18.3 µM | U-251 17.1 µM | NCI-H23 24.6 µM | MDA-N 19.8 µM | SK-MEL-5 14.7 µM | NCI-H522 17.9 µM | OVCAR-3 16.7 µM | 786-0 18.6 µM | IGROV-1 20.5 µM | ACHN 17.7 µM | OVCAR-8 15 µM | A549 17.7 µM | T47D 14.6 µM | SF-539 16.7 µM | A498 15.7 µM | UO-31 14.2 µM

CCCCCCCCC[n+]1cccc(C2C(C(=O)OCC)=C(C)NC(C)=C2C(=O)OCC)c1
inactive: KM12 1.98 µM | UACC-62 1.54 µM | NCI-H226 11.9 µM | RXF 393 2.03 µM | U-251 3.21 µM | NCI-H23 4.36 µM | MDA-N 2.13 µM | SK-MEL-5 1.88 µM | NCI-H522 2.68 µM | OVCAR-3 3.86 µM | 786-0 7.08 µM | IGROV-1 2.02 µM | ACHN 14.6 µM | OVCAR-8 3.39 µM | A549 18.2 µM | T47D 5.04 µM | SF-539 4.15 µM | A498 18.2 µM | UO-31 16.2 µM

Cc1nc(C)c(N2CCN(C#N)CC2)c(O)n1
inactive: KM12 > 100 µM | UACC-62 > 100 µM | NCI-H226 > 100 µM | RXF 393 > 100 µM | U-251 77.8 µM | NCI-H23 > 100 µM | MDA-N > 100 µM | SK-MEL-5 > 100 µM | NCI-H522 > 100 µM | OVCAR-3 > 100 µM | 786-0 > 100 µM | IGROV-1 > 100 µM | ACHN > 100 µM | OVCAR-8 93.3 µM | A549 > 100 µM | T47D > 100 µM | SF-539 > 100 µM | A498 > 100 µM | UO-31 > 100 µM

C=C1C(=O)OC2CC(C)C(C(O)CC(C)O)=CCC12 (stereo not drawn)
inactive: KM12 18.6 µM | UACC-62 16.6 µM | NCI-H226 26.1 µM | RXF 393 12.5 µM | U-251 16.3 µM | NCI-H23 15.6 µM | MDA-N 12.4 µM | SK-MEL-5 19.4 µM | NCI-H522 1.61 µM | OVCAR-3 9.62 µM | 786-0 13.7 µM | IGROV-1 16.8 µM | ACHN 4.39 µM | OVCAR-8 17.1 µM | A549 25.9 µM | T47D 7.08 µM | SF-539 15 µM | A498 16.9 µM | UO-31 16.2 µM

Brc1ccc(/C(N=N/C(=N\Sc2ccccc2)c2ccc(Br)cc2)=N/Sc2ccccc2)cc1
inactive: KM12 > 62.1 µM | UACC-62 > 100 µM | NCI-H226 > 100 µM | RXF 393 > 100 µM | U-251 > 100 µM | NCI-H23 > 100 µM | MDA-N > 100 µM | SK-MEL-5 > 100 µM | NCI-H522 > 100 µM | OVCAR-3 > 100 µM | 786-0 > 100 µM | IGROV-1 > 100 µM | ACHN > 61.1 µM | OVCAR-8 > 100 µM | A549 > 100 µM | T47D > 100 µM | SF-539 > 100 µM | A498 > 100 µM | UO-31 > 100 µM

Cc1ccc(C2=Nc3c(N)nc(N)nc3NC(c3ccccc3)C2)cc1 (stereo not drawn)
inactive: UACC-62 10.3 µM | NCI-H226 14.3 µM | RXF 393 9.4 µM | U-251 12.1 µM | NCI-H23 11.3 µM | MDA-N 2.22 µM | SK-MEL-5 10 µM | NCI-H522 3.65 µM | OVCAR-3 11.8 µM | 786-0 12 µM | IGROV-1 7.16 µM | ACHN 15.1 µM | OVCAR-8 14 µM | A549 10.9 µM | T47D 12.6 µM | SF-539 12.1 µM | A498 11.4 µM | UO-31 12.6 µM

Nc1nc2cc(CNc3ccc(C(=O)O)cc3)ccc2nc1-c1ccccc1
inactive: UACC-62 > 10 µM | NCI-H226 > 100 µM | RXF 393 > 100 µM | U-251 > 100 µM | NCI-H23 88.7 µM | MDA-N > 100 µM | SK-MEL-5 > 100 µM | NCI-H522 > 100 µM | OVCAR-3 > 100 µM | 786-0 > 100 µM | IGROV-1 > 100 µM | ACHN > 100 µM | OVCAR-8 > 100 µM | A549 > 100 µM | T47D 35.1 µM | SF-539 74.5 µM | A498 > 100 µM | UO-31 86.5 µM

CCC(=O)NCCc1c[nH]c2ccc(OC)cc12
inactive: KM12 > 100 µM | UACC-62 > 100 µM | NCI-H226 > 100 µM | RXF 393 > 100 µM | U-251 > 100 µM | NCI-H23 > 100 µM | MDA-N > 100 µM | SK-MEL-5 > 100 µM | NCI-H522 > 100 µM | OVCAR-3 > 100 µM | 786-0 > 100 µM | IGROV-1 > 100 µM | ACHN > 100 µM | OVCAR-8 > 100 µM | A549 > 100 µM | T47D > 100 µM | SF-539 > 100 µM | A498 > 100 µM | UO-31 > 100 µM

O=C(NNC(=O)c1c(Cl)c(Cl)c(Cl)c(Cl)c1-c1nc2ccccc2[nH]1)c1ccc(Cl)cc1
inactive: KM12 38.1 µM | UACC-62 56.4 µM | NCI-H226 43.4 µM | RXF 393 43.4 µM | NCI-H23 40.6 µM | MDA-N 21.3 µM | SK-MEL-5 38.3 µM | NCI-H522 49.8 µM | OVCAR-3 65.2 µM | 786-0 51.8 µM | IGROV-1 17.5 µM | ACHN 46.9 µM | OVCAR-8 66.1 µM | A549 45 µM | T47D 21.7 µM | SF-539 47.4 µM | A498 54.5 µM | UO-31 30.3 µM

CC(CN1NC12CCCC2)N1NC12CCCC2 (stereo not drawn)
inactive: KM12 > 100 µM | UACC-62 > 100 µM | NCI-H226 > 100 µM | RXF 393 > 100 µM | U-251 > 100 µM | NCI-H23 > 100 µM | MDA-N > 100 µM | SK-MEL-5 > 100 µM | NCI-H522 > 100 µM | OVCAR-3 > 100 µM | 786-0 > 100 µM | IGROV-1 > 100 µM | ACHN > 100 µM | OVCAR-8 > 100 µM | A549 > 100 µM | T47D > 100 µM | SF-539 > 100 µM | A498 > 100 µM | UO-31 > 100 µM

O=C(/C=C(\O)c1cc(-c2ccccc2)n(-c2ccccc2)n1)c1ccccc1
inactive: KM12 4.48 µM | UACC-62 2.99 µM | NCI-H226 3.38 µM | RXF 393 67.6 µM | U-251 2.84 µM | NCI-H23 9.71 µM | MDA-N 18.2 µM | SK-MEL-5 8.85 µM | NCI-H522 3.52 µM | OVCAR-3 4.84 µM | 786-0 3.27 µM | IGROV-1 2.51 µM | ACHN 3.35 µM | OVCAR-8 3.2 µM | A549 4.4 µM | T47D 3.7 µM | SF-539 10.9 µM | A498 > 100 µM | UO-31 4.27 µM

CC1(C)N=c2c(ncn2N)=C(C(N)=O)N1
inactive: KM12 > 100 µM | UACC-62 > 100 µM | NCI-H226 > 100 µM | RXF 393 > 100 µM | U-251 > 100 µM | NCI-H23 > 100 µM | MDA-N > 100 µM | SK-MEL-5 > 100 µM | NCI-H522 > 100 µM | OVCAR-3 > 100 µM | 786-0 > 100 µM | IGROV-1 > 100 µM | ACHN > 100 µM | OVCAR-8 > 100 µM | A549 > 100 µM | T47D > 100 µM | SF-539 > 100 µM | A498 > 100 µM

CN(C)c1ccc(/N=C2/NC(=N\c3ccccc3)/C(=N/c3ccccc3)S2)cc1
inactive: KM12 > 100 µM | UACC-62 51.2 µM | NCI-H226 > 100 µM | RXF 393 43.1 µM | NCI-H23 > 100 µM | MDA-N > 100 µM | SK-MEL-5 > 100 µM | NCI-H522 5.64 µM | OVCAR-3 > 100 µM | 786-0 32 µM | IGROV-1 > 100 µM | ACHN 49.1 µM | OVCAR-8 66.5 µM | A549 > 100 µM | T47D 53.1 µM | SF-539 > 100 µM | A498 87.3 µM
